Data set [1] has as its target T1, CYP1A2 (Homo sapiens, UniProt P05177).
T1 sequence (P05177 1-516): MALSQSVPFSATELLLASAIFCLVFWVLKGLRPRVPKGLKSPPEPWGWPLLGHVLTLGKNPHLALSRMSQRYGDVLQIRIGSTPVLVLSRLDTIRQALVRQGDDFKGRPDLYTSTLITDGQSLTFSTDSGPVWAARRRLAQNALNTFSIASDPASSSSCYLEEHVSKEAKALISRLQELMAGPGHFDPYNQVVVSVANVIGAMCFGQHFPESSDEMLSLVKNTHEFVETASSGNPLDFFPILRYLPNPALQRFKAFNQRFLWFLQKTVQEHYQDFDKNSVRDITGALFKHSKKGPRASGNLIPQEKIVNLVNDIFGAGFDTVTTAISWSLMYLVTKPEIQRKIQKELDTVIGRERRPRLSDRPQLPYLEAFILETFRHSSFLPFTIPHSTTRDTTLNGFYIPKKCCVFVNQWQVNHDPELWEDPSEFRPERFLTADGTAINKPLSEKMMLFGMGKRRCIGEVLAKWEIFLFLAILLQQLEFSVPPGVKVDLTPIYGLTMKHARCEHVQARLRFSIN
Particulars: HLM; cited from earlier work.

For data set [2], the target named is T1, CYP1A2. The conditions noted are these: read-out: IC50 for CYP1A2-mediated phenacetin O-deethylation in HLM; cited from earlier work.
For data set [3] the following is noted: humans; cited from earlier work.
Data set [4] in a line: Pharmacokinetics of caffeine alone and with pinocembrin in rats. It is filed as in vivo. Particulars: male, Wistar, rat, plasma, po, 15 mg/kg.
Data set [5] relates to CYP1A2. Particulars: cited from earlier work.
Data set [6] deals with T2, CYP1A2 (Rattus norvegicus, UniProt P04799).
T2 sequence (P04799 1-513): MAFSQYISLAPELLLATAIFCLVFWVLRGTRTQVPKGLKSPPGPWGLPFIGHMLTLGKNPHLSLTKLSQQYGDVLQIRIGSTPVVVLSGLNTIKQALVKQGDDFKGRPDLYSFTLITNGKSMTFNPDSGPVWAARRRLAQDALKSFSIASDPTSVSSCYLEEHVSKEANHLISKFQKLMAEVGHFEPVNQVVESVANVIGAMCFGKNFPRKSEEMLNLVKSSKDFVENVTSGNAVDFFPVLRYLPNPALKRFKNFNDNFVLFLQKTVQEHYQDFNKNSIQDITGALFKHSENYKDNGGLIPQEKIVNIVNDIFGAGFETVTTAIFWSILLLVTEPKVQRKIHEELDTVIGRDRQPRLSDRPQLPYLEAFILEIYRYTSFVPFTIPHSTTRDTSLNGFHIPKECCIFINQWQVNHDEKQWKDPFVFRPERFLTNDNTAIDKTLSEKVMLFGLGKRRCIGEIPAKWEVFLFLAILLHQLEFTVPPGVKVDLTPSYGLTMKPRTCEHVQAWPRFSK
Particulars: read-out: IC50 for CYP1A2 in RLM; cited from earlier work.

The format of data set [7] is in vivo, Wistar rats. Particulars: male, Wistar, rat, plasma, po, 4 mg/kg; for AUC(0-t): AUC0–t, tacrine 4 mg/kg oral alone (group III); for half-life: T1/2, tacrine 4 mg/kg oral alone (group III).
Data set [8] concerns the target T1, CYP1A2. The conditions noted are these: cited from earlier work.
Data set [9] deals with T1, CYP1A2. The conditions noted are these: HLM 0.3 mg/mL, phenacetin 1–1500 μM, 30 min.
Data set [10] in a line: Stability of pinocembrin in HLM. The format is in vitro ADME, human. The conditions noted are these: pinocembrin 5 μM, HLM 0.3 mg/mL, 0-30 min, 37 °C.
Data set [11] is described as follows: Stability of pinocembrin in RLM. The format is in vitro ADME, rat. Particulars: protocol as for HLM.
The target of data set [12] is T2, CYP1A2. The data set is described as follows: CYP1A2-catalyzed phenacetin O-deethylation in RLM. It is filed as in vitro ADME.
Data set [13] can be described thus: Liver distribution of pinocembrin after intravenous dosing in rats. It is filed as in vivo. Particulars: male, Wistar, rat, 10 mg/kg.
A further data set deals with CYP2C9. The conditions noted are these: read-out: IC50 for CYP2C9 inhibition; cited from earlier work.
The test system of the next data set is CYP2C19. The conditions noted are these: read-out: IC50 for CYP2C19 inhibition; cited from earlier work.
The test system of another data set is CYP3A4. Particulars: read-out: IC50 for CYP3A4 inhibition; cited from earlier work.
For data set [14] the following is noted: humans; cited from earlier work. This is another data set of the same source.

“And” between values parts separate entries of the source, which are not always exact repeats. Identical values can stand only once. Like-named read-outs stand apart in the source and are kept apart here.

Here are results for ten compounds from paper PMC9202019 (ACS Omega, 2022).

In the case of `O=c1cc(-c2ccc(O)c(O)c2)oc2cc(O)cc(O)c12` [Luteolin], at CYP1A2 [1], the “type of CYP1A2 inhibition” value was “competitively”.
Consider `CS(=O)(=O)c1ccc(C2=C(c3ccccc3)C(=O)OC2)cc1` [Rofecoxib], for which, at CYP1A2 [2], the IC50 is 4.2 µM. Also, the “increase in plasma concentration of the CYP1A2 substrate tizanidine” value in [3] is on record as 13.6 fold.
The compound `Cn1c(=O)c2c(ncn2C)n(C)c1=O` [caffeine] came in with an AUC(0-t) in [4] (AUC0–t, caffeine 15 mg/kg oral alone (group I)) of 2840 ± 141 ng·h/mL. Also, in [4] (T1/2, caffeine 15 mg/kg oral alone (group I)), the half-life is 1.1 ± 0.1 h. The “portion of the drug metabolized by CYP1A2” value in the data set with CYP1A2 [5] is listed as > 95%.
Turning to `Cc1nc2c([nH]1)c(=O)n(C)c(=O)n2Cc1ccco1` [furafylline], the IC50 on CYP1A2 [6] is 20.8 µM.
In the case of `Nc1c2c(nc3ccccc13)CCCC2O` (stereo not drawn) [hydroxytacrine, 1-hydroxytacrine], in data set [7], the AUC(0-t) stood at 907 ± 129 ng·h/mL and the half-life is 1.5 ± 0.3 h.
Consider `CC(C)C1=Cc2ccc3c(c2C(=O)C1=O)CCCC3(C)C` [miltirone], for which the “type of CYP1A2 inhibition” value at CYP1A2 [8] (kinetic analysis) is recorded as “mixed-type”. Further, the IC50 at CYP1A2 [8] (read-out: IC50 for CYP1A2 in HLM, HLM) is 1.73 µM.
On to `CCOc1ccc(NC(C)=O)cc1` [phenacetin], for which the “maximum velocity of the uninhibited reaction (Vmax) for CYP1A2-catalyzed phenacetin O-deethylation” value on CYP1A2 [9] is 1584 ± 12 pmol/min/mg of protein.
In the case of `O=C1C[C@@H](c2ccccc2)Oc2cc(O)cc(O)c21` [pinocembrin], the “Stability of pinocembrin in HLM (amount remaining vs 0 min)” value in data set [10] is “stable”. For the same compound, the “Stability of pinocembrin in RLM (amount remaining vs 0 min)” value in data set [11] is reported as “stable”. The IC50 on CYP1A2 [12] was 3.11 ± 0.09 µM; with CYP2C9 it was 13 µM; with CYP2C19, 22 µM; in the data set on CYP3A4, 28 µM. In addition, the Kp in data set [13] (liver and plasma) lay within 1.8 to 3.8. The concentration at 5 min in [13] (liver) is 3680 ng/g; in [13] (plasma) it was 2030 ng/mL and 7.9 µM. Further, the concentration at 15 min in [13] (liver) was 2380 ng/g; in data set [13] (plasma) it was 621 ng/mL.
In [7], `Nc1c2c(nc3ccccc13)CCCC2` [tacrine] gave an AUC(0-t) of 142 ± 13 ng·h/mL and a half-life of 1.7 ± 0.2 h. Besides, in the data set on CYP1A2 [5], the “contribution of CYP1A2 to metabolism” value is reported as > 90%.
Consider `c1ccc2[nH]c(-c3cscn3)nc2c1` [thiabendazole], for which the “enhancement in the plasma level of caffeine” value in data set [14] was 1.6 fold.
